The values that follow come from US6046219A, “Method for the treatment of conditions mediated by collagen formation together with cell proliferation by application of inhibitors of protein hydroxylation” (Cornell Research Foundation, Inc., priority 1997, dated 2000).

Molecules are shown by their SMILES.

The test system of test [1] is prolyl 4-hydroxylase in human lung fibroblast line MRC-5. Nature of the test: Assay of cellular human prolyl 4-hydroxylase / collagen secretion in MRC-5 lung fibroblasts. Format: cell-based. The settings on record: human lung fibroblasts MRC-5, FIG. 5a-f. The method, then: FIGS. 5a-f show, as percent of uninhibited controls, the suppressive effect of six hydroxypyridone compounds on prolyl 4-hydroxylation in a human lung fibroblast line ("MRC-5"). Those cells were pretreated with inhibitor for 30 minutes prior to routine metabolic labeling with tritiated proline ("Pro") for 24 hours, followed by standard hydrolysis and separation of amino acids from both supernatant and cells for determination of proline conversion into hydroxyproline ("Hyp").
The established human lung fibroblast line MRC-5 was used, maintained, and propagated by routine cell culture techniques.
SMC or MRC-5 cells (3-5×10^6 cells/35 mm well) were labeled in the presence or absence of hydroxypyridones, with ^3 H-proline (Pro) (4 μCi/ml) for 24 hours in proline- and serum-free Dulbecco […] ("DMEM") containing 50 μg/ml sodium ascorbate and 20 μg/ml β-aminopropionitrile. […] The hydrolysate was derivatized with phenylisothiocyanate and analyzed for ^3 H-proline ("Pro") and ^3 H-hydroxyproline ("Hyp") by HPLC on a reverse-phase C18 column, using an automated HPLC system (Hewlett-Packard, Wilmington, Del.) with an in-line scintillation counter (Inus Systems, Inc., Tampa, Fla.). The position of proline and hydroxyproline was determined from tritiated standards.

The subject of test [2] is cellular deoxyhypusyl hydroxylase. As to conditions: Hanauske-Abel et al. 1994; cited from earlier work.
The target in test [3] is T1, prolyl 4-hydroxylase in human coronary smooth muscle cells (SMC) (Homo sapiens, UniProt P13674).
T1 construct: 3H-proline to 3H-hydroxyproline conversion
Nature of the test: Assay of cellular human prolyl 4-hydroxylase in lesion-derived SMC (3H-proline labeling). Format: cell-based. As to conditions: upon removal of the inhibitor. As to the method:
Those SMC, immunocytochemically identified by reactivity to contractile α-actinas shown in FIGS. 4b and 4c were pretreated with inhibitor for 30 minutes prior to routine metabolic labeling with tritiated proline ("^3 H-Pro") for 24 hours, followed by standard hydrolysis and separation of amino acids from both supernatant and cells. The degree of inhibition of scar collagen formation was determined by measuring formation of tritiated hydroxyproline ("^3 H-Hyp").
Human coronary artery smooth muscle cells ("SMC") were isolated from specimens collected immediately after directional rotary atherectomy (Simpson AtheroCath, DVI, Inc., Redwood City, Calif.). […] To verify the SMC phenotype of the cultures, cells were plated onto LabTek 8-chamber slides and stained by indirect immunofluorescence for the SMC marker contractile α-actin, using a mouse monoclonal antibody specific for the contractile smooth muscle α-actin (clone No. IA4; Sigma) which was detected with FITC- or peroxidase-labeled […] (Sigma). […] Results were photodocumented with a Nikon Labophot 2 fluorescence microscope. […]

The next test relates to cell proliferation. The settings on record: Hanauske-Abel et al. 1994; cited from earlier work.

T1 sequence (P13674 18-534): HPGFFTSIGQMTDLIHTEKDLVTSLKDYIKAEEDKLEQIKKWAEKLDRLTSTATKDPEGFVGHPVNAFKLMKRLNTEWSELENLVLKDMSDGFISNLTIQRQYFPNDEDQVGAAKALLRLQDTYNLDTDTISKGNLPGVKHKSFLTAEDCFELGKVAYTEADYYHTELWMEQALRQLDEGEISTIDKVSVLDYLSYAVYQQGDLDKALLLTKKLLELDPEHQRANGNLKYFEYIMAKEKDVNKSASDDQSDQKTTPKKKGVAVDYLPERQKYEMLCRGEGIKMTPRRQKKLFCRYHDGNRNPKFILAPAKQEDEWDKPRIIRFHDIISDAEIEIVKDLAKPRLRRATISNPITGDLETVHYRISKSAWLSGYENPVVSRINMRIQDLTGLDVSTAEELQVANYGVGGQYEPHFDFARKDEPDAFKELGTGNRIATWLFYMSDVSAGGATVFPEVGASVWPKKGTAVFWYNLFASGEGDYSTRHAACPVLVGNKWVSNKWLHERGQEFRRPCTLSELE
T1 sequence (P07237 18-508 partner): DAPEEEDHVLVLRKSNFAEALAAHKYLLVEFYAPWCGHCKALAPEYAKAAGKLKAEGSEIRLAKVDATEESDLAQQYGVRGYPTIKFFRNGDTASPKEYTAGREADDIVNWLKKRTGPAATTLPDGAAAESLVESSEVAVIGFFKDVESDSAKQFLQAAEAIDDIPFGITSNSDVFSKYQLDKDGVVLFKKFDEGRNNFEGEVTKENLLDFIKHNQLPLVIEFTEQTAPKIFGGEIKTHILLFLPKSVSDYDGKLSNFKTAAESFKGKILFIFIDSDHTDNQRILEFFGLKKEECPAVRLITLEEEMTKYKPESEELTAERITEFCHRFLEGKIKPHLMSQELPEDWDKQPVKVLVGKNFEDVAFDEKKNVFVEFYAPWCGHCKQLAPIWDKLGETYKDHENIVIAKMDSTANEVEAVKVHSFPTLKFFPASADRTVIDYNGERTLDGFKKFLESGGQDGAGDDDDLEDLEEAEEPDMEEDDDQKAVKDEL

Take `N[C@@H](Cn1ccc(=O)c(O)c1)C(=O)O` [L-Mimosine]: the “secretion of hydroxyproline-containing proteins (collagen secretion)” value in test [1] was “selectively inhibited”. The “inhibition of cellular deoxyhypusyl hydroxylase activity” value in test [2] is reported as “block the cellular deoxyhypusyl hydroxylase activity”. In addition, in test [3], the “reversibility of suppression of cellular prolyl hydroxylase activity” value is recorded as “rapidly reversible”. In addition, in the test on cell proliferation, the “inhibition of the multiplication of certain cells” value is recorded as “reversible inhibitor”.
